Results on one molecule are retold here after US6355634B1, “Aromatic compounds” (Bayer Aktiengesellschaft, priority 1990, dated 2002).

Molecules are shown by their SMILES. A value given as a limit tells only on which side of the number the result lay.

One data set concerns Alternaria brassicae. Description: Alternaria brassicae (protective action) on cabbage seedlings. The class given is in vivo. The conditions noted are these: 50 ppm spray, cabbage cv. Vorbote, evaluated 2-5 days after infection, read-out: action (leaf area infected with Alternaria brassicae as a percentage compared with the infected, untreated control). The protocol:
Alternaria brassicae (Protective Action)
4 cabbage seedlings, cv. “Vorbote”, in the 6-leaf stage, distributed to 2 pots, are sprayed thoroughly with a spray mixture prepared with a wettable powder of the active substance (with 50 ppm of active ingredient) and subsequently cultured further in a controlled-environment cabinet at 19° C. and with 16 hours illumination per day. Two days after the treatment, the plants are infected by spraying with an aqueous conidia suspension (approx. 30,000 conidia/ml). The cabbage plants are then incubated at 24-26° C., under dew-point conditions and with a photoperiod of 16 hours. The test is evaluated 2-5 days after the infection by determining the leaf area infected with Alternaria brassicae as a percentage compared with the infected, untreated control.

Another data set has as its system Cercospora arachidicola. Put plainly: Action against Cercospora arachidicola on peanut plants (curative action). It counts as in vivo. Particulars: Mycosphaerella arachidis, 288 h, 160 ppm spray, peanut cv. Tamnut, evaluated 12 days after treatment, read-out: action (leaf area infected with Cercospora arachidicola as a percentage compared with the infected control). The protocol:
Action Against Cercospora arachidicola on Peanut Plants (Curative Action)
Two peanut plants cv. “Tamnut” in the 4-leaf stage are sprayed with a conidia suspension of Cercospora arachidicola (approx. 200,000 conidia/ml) and subsequently incubated at 25-26° C. and under dew-point conditions. After two days, the plants are sprayed thoroughly from all sides with a spray mixture prepared with a wettable powder of the active substance (with 160 ppm of active ingredient). The treated plants are subsequently incubated in a controlled-environment cabinet under the following conditions: 25-27° C. and 80% atmospheric humidity during the day, 20° C. and dew-point conditions during the night; the photoperiod in each case is 16 hours. 12 days after the treatment, the test is evaluated by determining the leaf area infected with Cercospora arachidicola as a percentage compared with the infected control.

Another data set has as its system Venturia inaequalis. Put plainly: Venturia inaequalis (curative action) on apple seedlings. It counts as in vivo. The conditions noted are these: 50 ppm spray, apple cv. Golden Delicious, evaluated 9-10 days after treatment, read-out: action (leaf area covered in Venturia inaequalis as a percentage compared with the infected control). On the procedure: Venturia inaequalis (Curative Action)
Two apple seedlings cv. “Golden Delicious” are sprayed with a conidia suspension of Venturia inaequalis and subsequently incubated at 18° C. and under dew-point conditions. After 24 hours, the plants are sprayed thoroughly from all sides with a spray mixture prepared with a wettable powder of the active substance (with 50 ppm of active ingredient). The treated apple seedlings are subsequently cultured further in the greenhouse. 9-10 days after the treatment, the test is evaluated by determining the leaf area covered in Venturia inaequalis as a percentage compared with the infected control.

The test system of another data set is Plasmopara viticola. Put plainly: Plasmopara viticola (protective action) on grapevine seedlings. Particulars: 144 h, 160 ppm spray, grapevine cv. Riesling x Sylvaner, day 6 after infection, read-out: action (leaf area infected with Plasmopara viticola as a percentage compared with the infected, untreated control). The class given is in vivo. The protocol:
Plasmopara viticola (Protective Action)
2 grapevine seedlings cv. Riesling×Sylvaner, each in the 4-5 leaf stage, are sprayed thoroughly from all sides with a spray mixture prepared with a wettable powder of the active substance (with 160 ppm of active ingredient) and subsequently cultured further in a controlled-environment cabinet at 17° C., 70-80% relative atmospheric humidity and with a photoperiod of 16 hours. After 6 days, the test plants are infected by spraying the undersides of the leaves with zoosporangia of Plasmopara viticola, suspended in distilled water (approx. 300,000 sporangia/ml). The grapevine plants are then incubated as follows: 1 day at 22° C. and under dew-point conditions in the dark and subsequently 4 days in the greenhouse. To induce fructification of Plasmopara viticola, the grapevines are transferred to a controlled-environment cabinet with dew-point conditions at 22° C. on day 5 after the infection.
The tests are carried out in each case on day 6 after the infection by determining the leaf area infected with Plasmopara viticola as a percentage compared with the infected, untreated control.

As usually defined, the melting point is the temperature of the solid-liquid transition. Molecule `CO/N=C(\C(=O)OC)c1ccccc1CON=C(C)c1cc2ccccc2o1` [Compound 32] returned a melting point of 110 to 112 °C. Moreover, the pest or weed control at 50 ppm with Alternaria brassicae was greater than 75%. Further, the pest or weed control at 160 ppm with Cercospora arachidicola was greater than 75%. Moreover, in the data set with Venturia inaequalis, the pest or weed control at 50 ppm is greater than 75%. Further, in the data set on Plasmopara viticola, the pest or weed control at 160 ppm is greater than 75%.
